{"source": "patent US10828326B2", "about": "“Compositions and methods for treating and preventing venom related poisoning” (priority 2015, dated 2020)", "tested_on": "Crotalus atrox venom-enhanced tissue-type plasminogen activator initiated fibrinolysis", "assay": "Thrombelastography of human plasma pretreated with iron and/or CO before venom exposure in the presence of tPA (Example II)", "type": "biochemical", "details": "100 IU/ml tPA, vs matched samples without or with venom exposure (0.5 μg/ml)", "method": "Two hundred mg of lyophilized, pooled venom was obtained from four western diamondback rattlesnakes (Crotalus atrox) for experimentation. Venom was reconstituted in calcium-free phosphate buffered saline (PBS, Sigma-Aldrich, Saint Louis, Mo., USA) at a concentration of 20 mg/ml, aliquoted, and then stored at −80° C. until experimentation at the University of Arizona.\nPooled normal plasma (George King Bio-Medical, Overland Park, Kans., USA) anticoagulated with sodium citrate was rapidly thawed at 37° C. and used for experimentation. To assess the effects of pretreatment of antifibrinolytic plasma proteins with iron, CO, or both, 1% additions of PBS, ferric chloride (FeCl3, 99.9% pure, Sigma-Aldrich, Saint Louis, Mo., USA) in PBS, or CORM-2 (tricarbonyldichlororuthenium (II) dimer, a CO releasing molecule, Sigma-Aldrich, Saint Louis, Mo., USA) dissolved in dimethyl sulfoxide (DMSO, Sigma-Aldrich, Saint Louis, Mo., USA) were used. […] Plasma was exposed to these various agents for at least 5 min prior to incubations with venom.\nThe final volume for all subsequently described plasma sample mixtures was 359.4 μl. Sample composition consisted of […] of plasma; 10 μl of tissue factor reagent (0.1% final concentration in distilled water; Diagnostica Stago S.A.S., Asnieres sur Seine, France), 10 μl of tissue type plasminogen activator (tPA, 580 IU/μg, Genentech, Inc., San Francisco, Calif., USA; 100 IU/ml final concentration) and 3.4 μl of PBS or venom (final concentration 0.5-2.0 μg/ml). […] The aforementioned plasma and venom mixtures were placed in a disposable cup in a computer-controlled Thrombelastograph® hemostasis system (Model 5000, Haemoscope Corp., Niles, Ill., USA) and incubated for 5 min at 37° C., with addition of 20 μl of 200 mM CaCl2) as the last step to initiate clotting. Data were collected at 37° C. until clot lysis time (CLT) was observed. The following elastic modulus-based parameters previously described (see, Nielsen V G, Pretorius E. Blood Coagul Fibrinolysis 2014; 25:695-702) were determined: time to maximum rate of thrombus generation (TMRTG): this is the time interval (min) observed prior to maximum speed of clot growth; maximum rate of thrombus generation (MRTG): this is the maximum velocity of clot growth observed (dynes/cm^2/sec); total thrombus generation (TTG, dynes/cm^2), the final viscoelastic resistance observed after clot formation; time to maximum rate of lysis (TMRL, min), maximum rate of lysis (MRL, dynes/cm^2/sec) and CLT (min). Lastly, to assess if venom had thrombolytic properties that were tPA independent, n=4 replicates were performed wherein no tPA was added and data were collected for 3 h.\nData are presented as mean±SD. All conditions unless otherwise indicated were represented by n=8 replicates. This number of replicates reliably provides a statistical power>0.8 for P<0.05 (see, Nielsen V G, Pretorius E. Blood Coagul Fibrinolysis 2014; 25:695-702). A commercially available statistical program was used for two-way analysis of variance (ANOVA) to assess interactions of venom and tPA on coagulation kinetics and interactions of iron and CO on venom-enhanced fibrinolysis (SigmaStat 3.1, Systat Software, Inc., San Jose, Calif., USA). Additional one-way ANOVA followed by Holm-Sidak post hoc analyses were performed to assess differences between the conditions. Graphics depicting viscoelastic data were generated with a commercially available program (OrigenPro 7.5, OrigenLab Corporation, Northampton, Mass., USA).", "key": {"[1]": {"details": "10 μM ferric chloride or 100 μM CORM-2"}}, "data": [{"smiles": "[Cl][Fe]([Cl])[Cl]", "note": "[iron, ferric chloride]", "values": [{"measurement": "clot lysis time (CLT)", "setting": "[1]", "value": "significantly greater"}, {"measurement": "maximum rate of thrombus generation (MRTG)", "setting": "[1]", "value": "greater"}, {"measurement": "time to maximum rate of lysis (TMRL)", "setting": "[1]", "value": "significantly greater"}, {"measurement": "total thrombus generation (TTG)", "setting": "[1]", "value": "greater"}, {"measurement": "maximum rate of lysis (MRL)", "setting": "10 μM ferric chloride", "value": "significantly greater"}, {"measurement": "time to maximum rate of thrombus generation (TMRTG)", "setting": "10 μM ferric chloride", "value": "significantly lesser"}]}]}
